Laboratory results published in patent US6713475B2, “Tricyclic benzodiazepines as vasopressin receptor antagonists” (Ortho-McNeil Pharmaceutical, Inc., priority 1999, dated 2004).
Several values for one entry are separate records, joined by “and”; a condition that tells them apart may be missing. Identical values can stand only once.

target: V2 (Homo sapiens, UniProt P30518); assay: In vitro recombinant vasopressin receptor binding assay (V2 Bdg), displacement of 3H-arginine vasopressin; design: expressed in transfected cells; host or cells: HEK-293; details: 0.1 uM; printed in parentheses in place of IC50
Description: In vitro Recombinant Vasopressin Receptor Binding Assay
Compounds were assessed for their ability to displace ^3H-arginine vasopressin from the human V-1 or V-2 receptor in HEK-293 cells. […] Into wells of 96-well round bottom polypropylene plates were added buffer, test compound, membrane (containing cloned human V-1 or V-2 receptor), and ^3H-vasopressin. The reaction plates were allowed to sit at room temperature for one hour. The samples were filtered through Unifilter GF/C plates (presoaked in 0.3 polyethyleneimine). The plates were washed 5 times with cold physiological saline containing 0.05% Tween 20. After drying, the bottom of the filter plates were sealed and 0.025 ml of Microscint-20 was added to each filter. The top of the plate was sealed, and the plate was counted.

Molecule | V2 Bdg % inh
(RS)-2,6-Dimethyl-N-[3-chloro-4-(1,3,4,12a-tetrahydro-2-methyl-6H-[1,4]pyrazino[4,3-a][1,4]-benzodiazepin-11(12H)-yl-carbonyl)phenyl]benzamide [Compound 63] | (9%/0.1 uM)
O=C(Nc1ccc(C(=O)N2CC3CSCCN3Cc3ccccc32)cc1)c1ccccc1-c1cccs1 (racemic) [Compound 52, (RS)-2-(2-Thienyl)-N-[4-(1,3,4,12a-tetrahydro-6H-[1,4]thiazino[4,3-a][1,4]-benzodiazepin-11(12H)-yl-carbonyl)phenyl]benzamide] | (36%/0.1 uM)
O=C(Nc1ccc(C(=O)N2CC3CSCCN3Cc3ccccc32)c(F)c1)c1ccccc1-c1ccsc1 (racemic) [Compound 51, (RS)-2-(3-Thienyl)-N-[3-fluoro-4-(1,3,4,12a-tetrahydro-6H-[1,4]thiazino[4,3-a][1,4]-benzodiazepin-11(12H)-yl-carbonyl)phenyl]benzamide] | (62%/0.1 uM)
O=C(Nc1ccc(C(=O)N2CC3CN(Cc4ccccc4)CCN3Cc3ccccc32)cc1)c1ccccc1-c1ccccc1 (racemic) [Compound 57, (RS)-2-Phenyl-N-[4-(1,3,4,12a-tetrahydro-2-benzyl-6H-[1,4]pyrazino[4,3-a][1,4]-benzodiazepin-11(12H)-yl-carbonyl)phenyl]benzamide] | (25%/0.1 uM)
(RS)-2-(3-Thienyl)-N-[4-(1,3,4,12a-tetrahydro-6H-[1,4]thiazino[4,3-a][1,4]-benzodiazepin-11(12H)-yl-carbonyl)phenyl]benzamide [Compound 49] | (59%/0.1 uM)
CN1CCN2Cc3ccccc3N(C(=O)c3ccc(NC(=O)c4ccccc4F)cc3Cl)CC2C1 (racemic) [Compound 64, (RS)-2-Fluoro-N-[3-chloro-4-(1,3,4,12a-tetrahydro-2-methyl-6H-[1,4]pyrazino[4,3-a][1,4]-benzodiazepin-11(12H)-yl-carbonyl)phenyl]benzamide] | 0% and 5%
Cc1ccccc1C(=O)Nc1ccc(C(=O)N2CC3CN(C)CCN3Cc3ccccc32)c(C(F)(F)F)c1 (racemic) [Compound 74, (RS)-2-M ethyl-N-[3-trifluoromethyl-4-(1,3,4,12a-tetrahydro-2-methyl-6H-[1,4]pyrazino[4,3-a][1,4]-benzodiazepin-11(12H)-yl-carbonyl)phenyl]benzamide] | (4%/0.1 uM)
(RS)-2-Methyl-5-fluoro-N-[3-chloro-4-(1,3,4,12a-tetrahydro-2-methyl-6H-[1,4]pyrazino[4,3-a][1,4]-benzodiazepin-11(12H)-yl-carbonyl)phenyl]benzamide [Compound 94] | (39%/0.1 uM)
CN1CCN2Cc3ccccc3N(C(=O)c3ccc(NC(=O)c4cccc(Cl)c4F)cc3Cl)CC2C1 (racemic) [Compound 65, (RS)-2-Fluoro-3-chloro-N-[3-chloro-4-(1,3,4,12a-tetrahydro-2-methyl-6H-[1,4]pyrazino[4,3-a][1,4]-benzodiazepin-11(12H)-yl-carbonyl)phenyl]benzamide] | (17%/0.1 uM)
Cc1ccc(-c2ccccc2C(=O)Nc2ccc(C(=O)N3CC4CN(C)CCN4Cc4ccccc43)c(Cl)c2)cc1 (racemic) [Compound 66, (RS)-2-(4-Methyl-phenyl)-N-[3-chloro-4-(1,3,4,12a-tetrahydro-2-methyl-6H-[1,4]pyrazino[4,3-a][1,4]-benzodiazepin-11(12H)-yl-carbonyl)phenyl]benzamide] | (82%/0.1 uM)
Cc1cccc(C(=O)Nc2ccc(C(=O)N3CC4CN(C)CCN4Cc4ccccc43)c(Cl)c2)c1C (racemic) [Compound 62, (RS)-2,3-Dimethyl-N-[3-chloro-4-(1,3,4,12a-tetrahydro-2-methyl-6H-[1,4]pyrazino[4,3-a][1,4]-benzodiazepin-11(12H)-yl-carbonyl)phenyl]benzamide] | 28% and 48%
O=C(Nc1ccc(C(=O)N2CC3CNCCN3Cc3ccccc32)cc1)c1ccccc1-c1ccccc1 (racemic) [Compound 58, (RS)-2-Phenyl-N-[4-(1,3,4,12a-tetrahydro-6H-[1,4]pyrazino[4,3-a][1,4]-benzodiazepin-11(12H)-yl-carbonyl)phenyl]benzamide] | (33%/0.1 uM)
Cc1ccc(-c2ccccc2C(=O)Nc2ccc(C(=O)N3CC4CN(C)CCN4Cc4ccccc43)cc2C)cc1 (racemic) [Compound 79, (RS)-2-(4-Methyl-phenyl)-N-[2-methyl-4-(1,3,4,12a-tetrahydro-2-methyl-6H-(1,4]pyrazino[4,3-a][1,4]-benzodiazepin-11(12H)-yl-carbonyl)phenyl]benzamide] | (33%/0.1 uM)

same assay, conditions: membrane with cloned human V-2 receptor (HEK-293)

Molecule | IC50 [nM]
O=C(Nc1ccc(C(=O)N2CC3COCCN3Cc3ccccc32)c(Cl)c1)c1cc(F)ccc1-c1ccccc1 (racemic) [Compound 111, (RS)-2-Phenyl-5-fluoro-N-[3-chloro-4-(1,3,4,12a-tetrahydro-6H-[1,4]oxazino[4,3-a][1,4]-benzodiazepin-11(12H)-yl-carbonyl)phenyl]benzamide] | 23
COc1cc(C(=O)N2CC3CN(C)CCN3Cc3ccccc32)ccc1NC(=O)c1ccccc1-c1ccc(C)cc1 (racemic) [Compound 73, (RS)-2-(4-Methyl-phenyl)-N-[2-methoxy-4-(1,3,4,12a-tetrahydro-2-methyl-6H-[1,4]pyrazino[4,3-a][1,4]-benzodiazepin-11(12H)-yl-carbonyl)phenyl]benzamide] | 43
Cc1ccc(F)cc1C(=O)Nc1ccc(C(=O)N2CC3COCCN3Cc3ccccc32)c(Cl)c1 (racemic) [Compound 110, (RS)-2-Methyl-5-fluoro-N-[3-chloro-4-(1,3,4,12a-tetrahydro-6H-[1,4]oxazino[4,3-a][1,4]-benzodiazepin-11(12H)-yl-carbonyl)phenyl]benzamide] | 6
COc1ccc(-c2ccccc2)c(C(=O)Nc2ccc(C(=O)N3CC4COCCN4Cc4ccccc43)c(Cl)c2)c1 (racemic) [Compound 116, (RS)-2-Phenyl-5-methoxy-N-[3-chloro-4-(1,3,4,12a-tetrahydro-6H-[1,4]oxazino[4,3-a][1,4]-benzodiazepin-11(12H)-yl-carbonyl)phenyl]benzamide] | 37
COc1ccc(-c2ccccc2C(=O)Nc2ccc(C(=O)N3CC4COCCN4Cc4ccccc43)c(Cl)c2)cc1 (racemic) [Compound 112, (RS)-2-(4-Methoxy-phenyl)-N-[3-chloro-4-(1,3,4,12a-tetrahydro-6H-[1,4]oxazino[4,3-a][1,4]-benzodiazepin-11(12H)-yl-carbonyl)phenyl]benzamide] | 6

The remaining lines, values ahead:

IC50 [nM] | Molecule
7 | O=C(Nc1ccc(C(=O)N2CC3CSCCN3Cc3ccccc32)c(O)c1)c1ccccc1-c1ccccc1 (racemic) [Compound 109, (RS)-2-Phenyl-N-[3-hydroxy-4-(1,3,4,12a-tetrahydro-6H-[1,4]thiazino[4,3-a][1,4]-benzodiazepin-11(12H)-yl-carbonyl)phenyl]benzamide]
140 | O=C(Nc1ccc(C(=O)N2CC3CS(=O)(=O)CCN3Cc3ccccc32)cc1)c1ccccc1-c1ccccc1 (racemic) [Compound 55, (RS)-2-Phenyl-N-[4-(1,3,4,12a-tetrahydro-2,2-dioxo-6H-[1,4]thiazino[4,3-a][1,4]-benzodiazepin-11(12H)-yl-carbonyl)phenyl]benzamide]
32 | O=C(Nc1ccc(C(=O)N2C[C@@H]3COCCN3Cc3ccccc32)c(Cl)c1)c1ccccc1-c1ccccc1 [Compound 13, (R)-2-Phenyl-N-[3-chloro-4-(1,3,4,12a-tetrahydro-6H-[1,4]oxazino[4,3-a][1,4]-benzodiazepin-11(12H)-yl-carbonyl)phenyl]benzamide]
32 | COc1cc(NC(=O)c2ccccc2-c2ccccc2)ccc1C(=O)N1CC2CSCCN2Cc2ccccc21 (racemic) [Compound 108, (RS)-2-Phenyl-N-[3-methoxy-4-(1,3,4,12a-tetrahydro-6H-[1,4]thiazino[4,3-a][1,4]-benzodiazepin-11(12H)-yl-carbonyl)phenyl)benzamide]
22 | O=C(Nc1ccc(C(=O)N2CC3CSCCN3Cc3ccccc32)c(F)c1)c1ccccc1-c1ccccc1 (racemic) [Compound 106, (RS)-2-Phenyl-N-[3-fluoro-4-(1,3,4,12a-tetrahydro-6H-[1,4]thiazinol[4,3-a][1,4]-benzodiazepin-11(12H)-yl-carbonyl)phenyl]benzamide]
15 | Cc1csc(-c2ccccc2C(=O)Nc2ccc(C(=O)N3CC4CSCCN4Cc4ccccc43)cc2)c1 (racemic) [Compound 53, (RS)-2-(4-Methyl-2-thienyl)-N-[4-(1,3,4,12a-tetrahydro-6H-[1,4]thiazino[4,3-a][1,4]-benzodiazepin-11(12H)-yl-carbonyl)phenyl]benzamide]

same assay, conditions: read-out: V2 Bdg % inh

inhibition at 0.1 µM [%] | Molecule
12 | COc1cccc2c1N(C(=O)c1ccc(NC(=O)c3ccccc3-c3ccccc3)cc1)CC1CSCCN1C2 (racemic) [Compound 40, (RS)-2-Phenyl-N-[4-(10-methoxy-1,3,4,12a-tetrahydro-6H-[1,4]thiazino[4,3-a][1,4]-benzodiazepin-11(12H)-yl-carbonyl)phenyl]benzamide]
73 | COc1cc(C(=O)N2CC3CN(C)CCN3Cc3ccccc32)ccc1NC(=O)c1ccccc1-c1ccc(C)cc1 (racemic) [Compound 73, (RS)-2-(4-Methyl-phenyl)-N-[2-methoxy-4-(1,3,4,12a-tetrahydro-2-methyl-6H-[1,4]pyrazino[4,3-a][1,4]-benzodiazepin-11(12H)-yl-carbonyl)phenyl]benzamide]
37 | Cc1cccc2c1N(C(=O)c1ccc(NC(=O)c3ccccc3-c3ccccc3)cc1)CC1CSCCN1C2 (racemic) [Compound 39, (RS)-2-Phenyl-N-[4-(10-methyl-1,3,4,12a-tetrahydro-6H-[1,4]thiazino[4,3-a][1,4]-benzodiazepin-11(12H)-yl-carbonyl)phenyl]benzamide]
